Measurements from patent publication US20040006070A1, “Intraspinal continuous infusion of midazolam hydrochloride for the treatment of pain” (priority 2002, published 2004).
Counter-ions that a name gives are not always drawn.

Assay: Bloodwork: complete blood count, electrolytes, extended blood chemistry
Type: in vivo, sheep
Description: Indirect blood pressure, pulse recording, pain testing (mechanical stimulus device, cold and warm water baths see description in procedure) and weight were taken on days 1, 3, 7, 15, 22, 29, 36, and 43. Venous blood samples (15 ml drawn from the jugular vein with Vacutainer brand blood collection tubes) for complete blood count, electrolytes, and extended blood chemistry were drawn on days 1, 15, and 43 (mild procedure only light hand restraint necessary).

[1] = sheep #84 Roadrunner, 15 mg/day, Day 1
[2] = sheep #84 Roadrunner, 15 mg/day, Day 15
[3] = sheep #84 Roadrunner, 15 mg/day, Day 43

In the case of Cc1ncc2n1-c1ccc(Cl)cc1C(c1ccccc1F)=NC2 [Midazolam, midazolam hydrochloride], the “Total Bili” value [1] is reported as 0.3 mg/dL, the “Total Prot” value [1] is reported as 5.9 g/dL and the WBC [1] is reported as 5390 µL⁻¹. For the same compound, the ALT [2] was 2 U/L, the AST [2] was 60 U/L and the Albumin [2] was 3.7 g/dL. For the same compound, the “Alk Phos” value [2] was 98 U/L, the BUN [2] was 11 mg/dL and the CPK [2] was 53 U/L. For the same compound, the Cholesterol [2] was 56 mg/dL, the Creatinine [2] was 1.3 mg/dL and the “Differential Count: Eosin” value [2] was 12%. For the same compound, the “Differential Count: Lymph” value [2] was 44%, the “Differential Count: Seg” value [2] was 44% and the “Gamma GT” value [2] was 62 U/L. It also gave a Glucose [2] of 66 mg/dL, a Hct [2] of 31.8% and a Hgb [2] of 10.8 g/dL. For the same compound, the “K+” value [2] was 4.8 mEq/l, the MCH [2] was 10.8 pg and the MCHC [2] was 34.0 g/dL. The MCV [2] was 31.8 fL, the “Na+” value [2] was 150 mEq/l and the Phos [2] was 6.6 mg/dL. For the same compound, the “Platlet Count” value [2] was 848000 µL⁻¹, the RBC [2] was 1e+07 µL⁻¹ and the “Total Bili” value [2] was 0.1 mg/dL. The “Total Prot” value [2] was 6.4 g/dL, the WBC [2] was 5130 µL⁻¹ and the ALT [3] was 7 U/L. For the same compound, the AST [3] was 65 U/L, the Albumin [3] was 3.54 g/dL and the “Alk Phos” value [3] was 143 U/L. It also gave a BUN [3] of 11 mg/dL, a CPK [3] of 102 U/L and a Cholesterol [3] of 57 mg/dL. For the same compound, the Creatinine [3] was 1.2 mg/dL, the “Differential Count: Atyp lym” value [3] was 1% and the “Differential Count: Eosin” value [3] was 2%. For the same compound, the “Differential Count: Lymph” value [3] was 67%, the “Differential Count: Mono” value [3] was 1% and the “Differential Count: Seg” value [3] was 29%. For the same compound, the “Gamma GT” value [3] was 56 U/L, the Glucose [3] was 74 mg/dL and the Hct [3] was 35.0%. The Hgb [3] was 11.9 g/dL, the “K+” value [3] was 4.6 mEq/l and the MCH [3] was 11.8 pg. For the same compound, the MCHC [3] was 34.0 g/dL, the MCV [3] was 34.7 fL and the “Na+” value [3] was 149 mEq/l. For the same compound, the Phos [3] was 7.1 mg/dL, the “Platlet Count” value [3] was 727000 µL⁻¹ and the RBC [3] was 1.01e+07 µL⁻¹. The “Total Bili” value [3] was 0.1 mg/dL, the “Total Prot” value [3] was 6.0 g/dL and the WBC [3] was 5150 µL⁻¹. The ALT (sheep #85, 15 mg/day, Day 1) was 7 U/L, the AST (sheep #85, 15 mg/day, Day 1) was 76 U/L and the “Alk Phos” value (sheep #85, 15 mg/day, Day 1) was 50 U/L. It also gave a BUN (sheep #85, 15 mg/day, Day 1) of 10 mg/dL, a CPK (sheep #85, 15 mg/day, Day 1) of 99 U/L and a Cholesterol (sheep #85, 15 mg/day, Day 1) of 52 mg/dL. For the same compound, the “Differential Count: Baso” value (sheep #85, 15 mg/day, Day 1) was 1%, the “Differential Count: Eosin” value (sheep #85, 15 mg/day, Day 1) was 1% and the “Differential Count: Lymph” value (sheep #85, 15 mg/day, Day 1) was 22%. For the same compound, the “Differential Count: Mono” value (sheep #85, 15 mg/day, Day 1) was 1%, the “Differential Count: Seg” value (sheep #85, 15 mg/day, Day 1) was 75% and the “Gamma GT” value (sheep #85, 15 mg/day, Day 1) was 68 U/L. For the same compound, the Glucose (sheep #85, 15 mg/day, Day 1) was 75 mg/dL, the Hct (sheep #85, 15 mg/day, Day 1) was 28.0% and the Hgb (sheep #85, 15 mg/day, Day 1) was 9.2 g/dL. The MCH (sheep #85, 15 mg/day, Day 1) was 10.7 pg, the MCHC (sheep #85, 15 mg/day, Day 1) was 32.8 g/dL and the MCV (sheep #85, 15 mg/day, Day 1) was 32.7 fL. For the same compound, the “Na+” value (sheep #85, 15 mg/day, Day 1) was 149 mEq/l, the “Platlet Count” value (sheep #85, 15 mg/day, Day 1) was 994000 µL⁻¹ and the RBC (sheep #85, 15 mg/day, Day 1) was 8.57e+06 µL⁻¹. The WBC (sheep #85, 15 mg/day, Day 1) was 4780 µL⁻¹, the “Total Bili” value (sheep #85, 15 mg/day, Day 1, ref 0.14-0.32) was 0.1 mg/dL and the Creatinine (sheep #85, 15 mg/day, Day 1, ref 1-2.7) was 1.4 mg/dL. For the same compound, the Albumin (sheep #85, 15 mg/day, Day 1, ref 2.4-3) was 3.4 g/dL, the “K+” value (sheep #85, 15 mg/day, Day 1, ref 3.9-5.4) was 4.7 mEq/l and the Phos (sheep #85, 15 mg/day, Day 1, ref 5-7.3) was 5.3 mg/dL. The “Total Prot” value (sheep #85, 15 mg/day, Day 1, ref 6-7.9) was 6.1 g/dL, the ALT (sheep #85, 15 mg/day, Day 15) was 10 U/L and the AST (sheep #85, 15 mg/day, Day 15) was 56 U/L. The “Alk Phos” value (sheep #85, 15 mg/day, Day 15) was 54 U/L, the BUN (sheep #85, 15 mg/day, Day 15) was 17 mg/dL and the CPK (sheep #85, 15 mg/day, Day 15) was 56 U/L. For the same compound, the Cholesterol (sheep #85, 15 mg/day, Day 15) was 58 mg/dL, the “Differential Count: Eosin” value (sheep #85, 15 mg/day, Day 15) was 12% and the “Differential Count: Lymph” value (sheep #85, 15 mg/day, Day 15) was 44%. For the same compound, the “Differential Count: Seg” value (sheep #85, 15 mg/day, Day 15) was 44%, the “Gamma GT” value (sheep #85, 15 mg/day, Day 15) was 54 U/L and the Hct (sheep #85, 15 mg/day, Day 15) was 31.8%. For the same compound, the Hgb (sheep #85, 15 mg/day, Day 15) was 10.8 g/dL, the MCH (sheep #85, 15 mg/day, Day 15) was 10.8 pg and the MCHC (sheep #85, 15 mg/day, Day 15) was 34.0 g/dL. For the same compound, the MCV (sheep #85, 15 mg/day, Day 15) was 31.8 fL, the “Na+” value (sheep #85, 15 mg/day, Day 15) was 148 mEq/l and the “Platlet Count” value (sheep #85, 15 mg/day, Day 15) was 848000 µL⁻¹. For the same compound, the RBC (sheep #85, 15 mg/day, Day 15) was 1e+07 µL⁻¹, the WBC (sheep #85, 15 mg/day, Day 15) was 5130 µL⁻¹ and the “Total Bili” value (sheep #85, 15 mg/day, Day 15, ref 0.14-0.32) was 0.0 mg/dL. For the same compound, the Creatinine (sheep #85, 15 mg/day, Day 15, ref 1-2.7) was 1.2 mg/dL, the Albumin (sheep #85, 15 mg/day, Day 15, ref 2.4-3) was 2.8 g/dL and the “K+” value (sheep #85, 15 mg/day, Day 15, ref 3.9-5.4) was 5.0 mEq/l. The Phos (sheep #85, 15 mg/day, Day 15, ref 5-7.3) was 6.0 mg/dL, the “Total Prot” value (sheep #85, 15 mg/day, Day 15, ref 6-7.9) was 5.4 g/dL and the ALT (sheep #85, 15 mg/day, Day 43) was 8 U/L. The AST (sheep #85, 15 mg/day, Day 43) was 59 U/L, the “Alk Phos” value (sheep #85, 15 mg/day, Day 43) was 92 U/L and the BUN (sheep #85, 15 mg/day, Day 43) was 13 mg/dL. For the same compound, the CPK (sheep #85, 15 mg/day, Day 43) was 81 U/L, the Cholesterol (sheep #85, 15 mg/day, Day 43) was 72 mg/dL and the “Differential Count: Eosin” value (sheep #85, 15 mg/day, Day 43) was 4%. For the same compound, the “Differential Count: Lymph” value (sheep #85, 15 mg/day, Day 43) was 75%, the “Differential Count: Mono” value (sheep #85, 15 mg/day, Day 43) was 3% and the “Differential Count: Seg” value (sheep #85, 15 mg/day, Day 43) was 18%. For the same compound, the “Gamma GT” value (sheep #85, 15 mg/day, Day 43) was 60 U/L, the Glucose (sheep #85, 15 mg/day, Day 43) was 76 mg/dL and the Hct (sheep #85, 15 mg/day, Day 43) was 34.7%. It also gave a Hgb (sheep #85, 15 mg/day, Day 43) of 11.9 g/dL, an MCH (sheep #85, 15 mg/day, Day 43) of 12.6 pg and an MCHC (sheep #85, 15 mg/day, Day 43) of 34.1 g/dL. For the same compound, the MCV (sheep #85, 15 mg/day, Day 43) was 36.8 fL, the “Na+” value (sheep #85, 15 mg/day, Day 43) was 148 mEq/l and the “Platlet Count” value (sheep #85, 15 mg/day, Day 43) was 604000 µL⁻¹. For the same compound, the RBC (sheep #85, 15 mg/day, Day 43) was 9.44e+06 µL⁻¹, the WBC (sheep #85, 15 mg/day, Day 43) was 3130 µL⁻¹ and the “Total Bili” value (sheep #85, 15 mg/day, Day 43, ref 0.14-0.32) was 0.1 mg/dL. The Creatinine (sheep #85, 15 mg/day, Day 43, ref 1-2.7) was 1.3 mg/dL, the Albumin (sheep #85, 15 mg/day, Day 43, ref 2.4-3) was 3.6 g/dL and the “K+” value (sheep #85, 15 mg/day, Day 43, ref 3.9-5.4) was 4.9 mEq/l. The Phos (sheep #85, 15 mg/day, Day 43, ref 5-7.3) was 7.1 mg/dL, the “Total Prot” value (sheep #85, 15 mg/day, Day 43, ref 6-7.9) was 6.4 g/dL and the ALT (sheep #91, 15 mg/day, Day 1) was 7 U/L. The AST (sheep #91, 15 mg/day, Day 1) was 61 U/L, the “Alk Phos” value (sheep #91, 15 mg/day, Day 1) was 132 U/L and the BUN (sheep #91, 15 mg/day, Day 1) was 9 mg/dL. The CPK (sheep #91, 15 mg/day, Day 1) was 52 U/L, the Cholesterol (sheep #91, 15 mg/day, Day 1) was 47 mg/dL and the “Differential Count: Eosin” value (sheep #91, 15 mg/day, Day 1) was 1%. The “Differential Count: Lymph” value (sheep #91, 15 mg/day, Day 1) was 21%, the “Differential Count: Mono” value (sheep #91, 15 mg/day, Day 1) was 2% and the “Differential Count: Seg” value (sheep #91, 15 mg/day, Day 1) was 76%. For the same compound, the “Gamma GT” value (sheep #91, 15 mg/day, Day 1) was 51 U/L.
